Results as given in patent US20030109051A1, “Spin trap for use in biological systems” (RANDOX LABORATORIES LTD, priority 2001, published 2003).
“Also recorded” adds a separate entry of the source.

Legend:
[1] = Reaction of nitric oxide with spin traps, ESR time course (chemical system); conditions: for trapping of nitric oxide (spin trap for nitric oxide): chemical system, spin trap in toluene, NO-saturated water
Protocol: ESR spectra were obtained using a prototype spectrometer (Jeol (U.K.) Ltd., Welwyn Garden City, England) equipped with a TED11 cylindrical cavity. Samples were analysed at room temperature in a WG-LC-11 quartz flat cell (Wilmad-Glass, Buena, N.J.). In general, the instrument parameters were: microwave frequency 9.2 GHz, microwave power 4 mW, centre field (CF) 336.7 mT, sweep width (SW)±5 mT, number of data points 4095, modulation frequency 100 kHz. For the spin traps reacted with nitric oxide: sweep time (ST) 150 s, time constraint (TC) 0.3 s, modulation width (MW) 0.2 mT. A JEOL ES-DM1 digital manganese oxide marker (0.03 mm of the glass tube inserted per unit on the dial setting) with a dial setting of 500 was used to ensure reproducibility between samples and to identify the position of the signals in the microwave field.
Samples of DBBNB, DMNB and TMNB were weighed into vacutainers, which were then evacuated Toluene and Tris-HCl buffer, 0.01 M, pH 7.4, were deoxygenated by bubbling with nitrogen gas for 15 min. Deoxygenated toluene was added to DBBNB, DMNB and TMNB, using a gas-tight syringe, to give a final concentration of 0.15 M in the reaction mixture.
The apparatus shown in FIG. 5 was flushed with nitrogen for 15 min. The vacutainer containing deionised water (4 ml) was then connected to the system and flushed with nitrogen for a further 15 min, to remove any oxygen present in the system, and therefore to prevent the formation of nitrogen dioxide. The NO gas was bubbled through the deionised water via the system for 45 min. The small amount of nitrogen dioxide present in the pressurised NO container was removed by bubbling through two bottles of 5M NaOH. The gas was then bubbled through a scrubbing bottle containing deionised water to remove any alkaline aerosol contamination. Any excess of NO after the deionised water step was bubbled through a scrubbing bottle containing 1M potassium permanganate/1M NaOH to prevent excess NO escaping from the fumehood. The concentration of NO in the resulting NO-saturated water was taken to be 2.0 mM. […]

[2] = Spin trapping of nitric oxide in whole blood using DMNB (ESR)
Protocol: This may be due to the possibility that any NO present or produced by live leucocytes in whole blood may react with thiol groups to form S-nitrosothiols and consequently be not trapped by DMNB. […] Lipopolysaccharide (LPS), which activates cell function, was also used in order to stimulate the cells to increase production of NO. As NEM may be toxic to cells, it was added i) at the same time as LPS and ii) 3.5 hours after the addition of LPS.
Peripheral blood was taken from a healthy volunteer into a vacutainer containing EDTA. After mixing, 1 ml of the blood was dispensed into each reaction vacutainer by a syringe, as quickly as possible (under 5 min).
DMNB (2) 0.5406 g was dissolved in 16 ml of deoxygenated toluene (by bubbling through nitrogen gas) to make a 0.25 M solution. 700 μl of the solution was added to each reaction mixture to make a final concentration of 0.1 M. A NO solution was made by bubbling nitric oxide gas through deoxygenated water for 45 min. The resulting NO solution (2 mM) was diluted with deoxygenated water to give 10, 35 and 50 nM solutions. An NEM solution (0. 3 M) was prepared by dissolving 0.0751 g of NEM in deoxygenated water. NEM solution (0.3 M), in amounts of 20, 40 and 80 μl, was added to the reaction mixtures to give a concentration, in 1 ml of blood, of 6, 12 and 24 mM. LPS (1 mg) was dissolved in 1 ml of PBS, 0.01 M, pH 7.4. The working stock solution is 100 μg/ml, diluted with the same buffer. The working stock solution of 10 μl was added to the reaction mixture to give a 1 μg/ml of blood. All transfer of reagents was done by gastight syringe through rubber stopper. The difference in volume due to the addition of NEM and LPS was compensated for by addition of deoxygenated water.
NO solution, blood without NEM nor LPS and PBS (0.01 M, pH 7.4) as controls were added to DMNB in toluene directly. NEM without LPS was added to blood immediately prior to addition of DMNB in toluene. When LPS was added to blood alone, the mixture of blood and LPS was incubated at room temperature for 3.5 hour before addition to DMNB in toluene. When both NEM and LPS were added to blood, NEM was either added to the blood together with LPS or added 3.5 hour later (Gust before addition of DMNB). When the DMNB in toluene was added, the reaction mixtures were incubated at room temperature on a roller for 2 hour to ensure effective extraction.
The reaction mixture was then analysed by ESR spectrometry (RE1X, Jeol). Individual results are shown in FIG. 6, and have been reassessed, for comparison purposes, in FIG. 7.

Structure (SMILES)	reaction time of DBNBS with NO ([1]; comparison value, conditions and source not given)	trapping of nitric oxide (spin trap for nitric oxide) [1]	DMNB-NO adduct ESR signal intensity ([2]; LPS alone (1 μg/ml blood, 3.5 hour) before DMNB)	DMNB-NO adduct ESR signal intensity ([2]; NEM (6, 12, 24 mM) added to blood before DMNB, increase proportional to NEM concentration)	DMNB-NO adduct ESR signal ([2]; both LPS and NEM added to blood)	DMNB-NO adduct ESR signal ([2]; peripheral blood incubated with DMNB in toluene, no NEM, no LPS)
O=Nc1c(Br)cc(S(=O)(=O)[O-])cc1Br.[Na+] [DBNBS, 3,5-dibromo-4-nitrosobenzene sulphonate, sodium salt, reference compound]	approximately 50 hr	–	–	–	–	–
Cc1cccc(C)c1N=O [DMNB, 2,6-Dimethylnitrosobenzene]	–	shown to trap nitric oxide	did not Increase the signal intensity	increase in signal intensity	significant increase	did not produce a detectable DMNB-NO adduct signal; also recorded: very little signal was detected
Cc1cc(C)c(N=O)c(C)c1 [TMNB, 2,4,6-Trimethylnitrosobenzene]	–	shown to trap nitric oxide	–	–	–	–
